Measurements: patent US7910624B1, “Compositions for the treatment of blood disorders” (The Trustees of Boston University, priority 1995, dated 2011)
Blank lines part the entries; values can stand above or below the compound they belong to.

How the values were obtained:
[1] = system: erythroid cells (peripheral blood cells); assay: Erythroid cell viability by Calcein-AM fluorescent staining (FIG. 2); assay type: cell-based; conditions: 0.5 mM
Experimental: Compositions were tested for the ability to directly stimulate erythroid cell growth. Cell growth stimulation is a useful property for an agent to be used to treat anemias and distinguishes such agents from the cytotoxic drugs currently being tested for treatment of hemoglobinopathies. Cell viability analyses were performed using fluorescent staining to detect living cells. Cells were in log phase of growth in 6-well dishes when used in proliferation assays. For enumeration of living cells, wells were washed once with medium to remove nonadherent or dead cells. Remaining live cells were labeled with 2 μM 2′,7′-bis-(carboxyethyl)-5-(and 6)-carboxy-fluorescein acetoxy-methyl ester (Calcein-AM) (Molecular Probes; Eugene, Oreg.) for 20 minutes at 37° C. and washed once. Fluorescence intensity of live cells was read on a CytoFluor 2300 Fluorescence Plate Scanner (Millipore; Bedford, Mass.) at excitation and emission wavelengths of 485 and 530 nm, respectively. The fluorescence intensity of a well was proportional to the number of living cells in the well. Background fluorescence was measured separately for each plate and subtracted from all readings. Each experiment was performed in triplicate or quadruplicate. The standard deviation (SD) of repetitive readings was less than 30% of the mean. Results are depicted in FIG. 2.

K562 cells = assay: Dose response, total and viable cells by trypan blue exclusion (FIG. 3); assay type: cell-based, human; conditions: up to 2.0 mM, day 4
Experimental: FIG. 3 A FIG. 3E Cell viability as determined by the comparative numbers of total and viable K562 cells in the presence of increasing concentrations of (A) phenoxyacetic acid, (B) dihydrocinnamic acid, (C) butyric acid ethyl ester, (D) arginine butyrate, and (E) isobutyramide.
Dose response curves at dosages of up to 2.0 mM were also determined for phenoxyacetic acid (PAA; FIG. 3A), dihydrocinnamic acid (DHC; FIG. 3B), butyric acid ethyl ester (BAEE; FIG. 3C), arginine butyrate (AB; FIG. 3D) and isobutyramide (IBT; FIG. 3E). Cells were counted on day 4 of treatment and viable cells identified by trypan blue exclusion.

[2] = system: erythroid progenitor cells cultured from human cord blood; assay: Fetal globin expression in human cell cultures (3H-leucine labelled globin chains, densitometry); assay type: cell-based
Experimental: Compositions were tested for activity in inducing fetal globin expression and protein production in erythroid progenitor cells cultured from human cord blood and analyzed as described by S. P. Perrine et al. (Blood 74: 454-60, 1989). Briefly, mononuclear cells were cultured in IMDM with 30% fetal calf serum and 2 units erythropoietin per ml to induce erythroid differentiation. Colonies were harvested on day 12-13, incubated with radio-labelled (^3H) leucine, and further incubated in leucine-free media, still in the presence of compounds, overnight. Globin composition in the erythroid cells was analyzed by laser densitometry of electrophoretically separated globin chains stained with Coomassie blue, and by autoradiography. Treated cells were incubated for 12-13 days (Table 2, Experiments A and B) or overnight (Table 2, Experiment C) in the presence of the indicated compounds and compared to untreated control cells cultured from the same human subject.

[3] = system: Human erythroleukemia cells; assay: Fetal globin mRNA in erythroleukemia cells by primer extension; assay type: cell-based; conditions: 1.0 mM; 4 days
Experimental: Compounds were tested for increased expression of the human globin genes in human erythroid cells. In addition, as the cell line being tested is a tumor cell line, the assay determines if differentiation, a growth inhibitory effect on cancer cells, is induced by the compounds tested. Human erythroleukemia cells were cultured in RPMI media with 10% fetal calf serum alone or with treatment with various compounds for 4 days. Globin mRNA was quantitated by primer extension analysis. Fetal globin mRNA was compared to the amount of fetal globin mRNA produced in untreated cells during the same culture period. The quantitation was expressed as a percent of alpha globin mRNA which was constant. Results are expressed proportional to α-globin mRNA (Table 3).

[4] = system: human erythroid cell line K562; assay: Cell viability / growth of K562 by Calcein-AM fluorescence; assay type: cell-based; conditions: 0.5 mM; over 3 days
Experimental: (§1) Such activities might limit their utility for treatment of anemias such as occur in thalassemia, but alternatively would be useful for anticancer effects. To determine cell viability, human erythroid cells were cultured in the presence and absence of these compounds for 4 days and the amount of DNA fragmentation which occurred was measured.
Cell viability analyses were performed using fluorescent staining to detect living cells. Cells were in log phase of growth in 6-well dishes when used in proliferation assays. For enumeration of living cells, wells were washed once with medium to remove nonadherent or dead cells. Remaining live cells were labeled with Calcein-AM for 20 minutes at 37° C. and washed once. Fluorescence intensity of adherent live cells was read on a CytoFluor 2300 Fluorescence Plate Scanner (Millipore; Bedford, Mass.) at excitation and emission wavelengths of 485 and 530 nm, respectively. The fluorescence intensity of a well was proportional to the number of living cells in the well. Background fluorescence was measured separately for each plate and subtracted from all readings. Each experiment was performed in triplicate or quadruplicate. The standard deviation (SD) of repetitive readings was less than 30% of the mean.
At higher concentrations, still easily achievable in vivo, arginine butyrate (0.5 mM) and dihydrocinnamic acid (greater than 0.5 mM) inhibited growth of this tumor cell line by approximately 50%. Therefore, these compounds are also useful as anti-tumor agents.

human erythroid cells = assay: DNA fragmentation by flow cytometry (propidium iodide); assay type: cell-based; conditions: for effect in DNA fragmentation assays: summary statement
Experimental: as §1
Flow cytometric determination of DNA profiles and DNA fragmentation were determined. Cytometric analysis was performed with a FACScan (Becton Dickenson Instruments; Columbia, Md.). The data analysis and display were performed using the Cell-Fit software program. Approximately 0.5×10^6 cells were washed twice with PBS and resuspended in 1 ml of 1% sodium citrate, 0.1% Triton X-100 and […] of propidium iodide/ml. Resulting permeabilized cells were kept in the dark at 4° C. overnight before DNA profile or DNA fragmentation analysis (Table 4).

anemic juvenile baboons = assay: In vivo reticulocyte proliferation and globin expression in phlebotomized anemic baboons; set-up: species or system baboon; conditions: for fetal reticulocytes on treatment: 4 days, baseline 4%
Experimental: Experiments were performed to determine if administration of the chemical compositions could induce fetal globin gene expression in an in vivo model similar to humans (S. P. Perrin et al., Brit. J. Haematol. 88:555-61, 1994). Briefly, chemicals were prepared as sterile pharmaceutical solutions in pH adjusted sterile water. A variety of chemical compositions were administered sequentially to some baboons. After administration of one compound, a wash-out period with no compound administration was maintained until reticulocytes returned to base line prior to administration of the next compound. This was done, at least partly, to compare the magnitude of response which occurred within the same individual animal to different compounds.
Briefly, juvenile female baboons (2 years old) were catheterized with arterial and venous catheters and phlebotomized gradually every day to maintain a moderate anemia of 7.0 to 7.5 grams hemoglobin/dl. Fetal reticulocytes, the newly produced red blood cells containing fetal globin, were assayed using a monoclonal antibody against fetal globin (HbF) as described by G. Dover et al. (Blood 67:735-38, 1986). Briefly, blood was stained with two antibodies, one specific for reticulocytes and another against fetal globin protein. The amount of antibody bound cells was determined by FACS analysis. Globin chain synthesis was assayed as described by J. B. Clegg et al. (J. Mol. Biol. 19:91-108, 1966). Briefly, reticulocytes were radio-labeled with ^3H-leucine which was incorporated in equal proportions into actively synthesized globin chains. After incubation in leucine-free media, cells were washed, and globin proteins were separated and purified by column chromatography. Radioactivity incorporated into each peak is compared and the ratios of gamma to gamma plus beta globin calculated. Each animal served as its own control with baseline monitoring assays performed for 4-6 weeks before any drug was administered. Phlebotomy was continued daily, so that peripheral HbF levels in the animals were not considered to be accurate over the short treatment time-frames and were not monitored. Safety monitoring was performed by frequent physical examinations, quantitation of food eaten, activity and frequent chemistry and hematology monitoring. Complete blood counts were assayed before, during and after treatment. Results presented were not adjusted to account for the daily phlebotomy.

[5] = system: patient with thalassemia intermedia; assay: Isobutyramide treatment of a patient with thalassemia, blood counts and hemoglobin; assay type: in vivo, human; conditions: 50 mg/kg 3 days/week
Experimental: This patient received isobutyramide at 50 mg/kg for 3 days/week over the course of the study.

[6] = system: Human mammary carcinoma cells (MCF-7); assay: Human mammary carcinoma cell viability by FACS; assay type: cell-based; conditions: 1.0 mM; 4 days
Experimental: Human mammary carcinoma cells (MCF-7) were cultured alone (controls) and with arginine butyrate or isobutyramide for 4 days. Viability was assayed by FACS after incubation with a fluorescent dye taken up by viable cells (FIG. 6). Growth was decreased by 50% with isobutyramide at 1.0 mM, about 60% with arginine butyrate at 0.5 mM, and greater than 90% with arginine butyrate at 1.0 mM.

[7] = system: system A transport in K562 cells and nucleated erythroblasts from fetal liver; assay: System A (neutral amino acid) transport, 3H-MAIB uptake; assay type: cell-based, human; conditions: 1 hour incubation; FIG. 12
Experimental: Inhibition of nutrient uptake is undesirable for treatment of anemias. Methyl aminoisobutyric acid (MAIB) labeled with tritium (^3H) is normally taken up by system A amino acid transport. Cold (unlabeled) compounds were added to cultures containing ^3H-MAIB and incubated for 1 hour. Cells were harvested and the amount of ^3H taken up by cells was quantitated by scintillation counting.

[8] = system: erythroblast culture from peripheral blood of patients with sickle cell anemia; assay: Induction of fetal globin in erythroblasts by steel factor; assay type: cell-based, human
Experimental: Peripheral blood was obtained from patients with sickle cell anemia. Mononuclear cells were isolated on Ficoll-Hypaque gradients. One culture was treated with 100 ng/ml steel factor for 13 days and compared with an untreated control. […] A second culture was incubated overnight with an identical dose of steel factor Plus ^3H-leucine. Amounts of labeled globin proteins synthesized in untreated (FIG. 5A) and steel factor treated (FIG. 5B) cells were determined by autoradiography and quantitated (scanned) by laser densitometry. […] The increase observed included both G-γ, and A-γ globin proteins.

[9] = 1.0 mM to 2.0 mM, untreated cells 26%
[10] = 2.0 mM, 4 days, controls 26%, 22%
[11] = 25 and 100 μg/kg subcutaneously

Compound: CCCC(=O)OCC [BAEE, butyric acid ethyl ester]
erythroid cell growth and proliferation compared to untreated controls (FIG. 2) [1]: either had no effect or stimulated erythroid cell growth and proliferation
proliferation (dose response, FIG. 3) (K562 cells): did not significantly inhibit proliferation
Gamma Increase ([2]; Exp. A, 0.1 mM, 12-13 days, above untreated cells): 13.0%
Gamma Increase ([2]; Exp. B, 0.2 mM, 12-13 days): 8.5%
Gamma Increase ([2]; Exp. C, 0.1 mM, overnight): 12.5%
induction of fetal globin mRNA in human cells [3]: significantly increased
growth of K562 [4]: either did not inhibit, or slightly enhanced growth
Degraded DNA (human erythroid cells; [9]): 13.8%
Degraded DNA (human erythroid cells; [10]): 13.8%
effect in DNA fragmentation assays (human erythroid cells): reduce DNA fragmentation
increase of fetal reticulocytes above basal levels (anemic juvenile baboons; intravenous 3 days, 500 to 1,000 mg/kg per day): over 1,100%
increase of fetal reticulocytes (anemic juvenile baboons; intravenous 3 days, 500 to 1,000 mg/kg per day (FIG. 11)): 11.3 fold

Degraded DNA (human erythroid cells; [9]): 44%
Degraded DNA (human erythroid cells; [10]): 34%
Compound: CC(C)C(N)=O [IBT, isobutyramide]
erythroid cell growth and proliferation compared to untreated controls (FIG. 2) [1]: either had no effect or stimulated erythroid cell growth and proliferation
effect in DNA fragmentation assays (human erythroid cells): decrease cell viability
fetal globin (HbF) ([5]; four month study period): lack of increased fetal globin
rise of hematocrit (Hct) ([5]; four month study period): 5.8%
rise of hemoglobin (Hgb) ([5]; four month study period): 1.6 g/dL
rise of reticulocytes (Retics) ([5]; four month study period): about 50%
rise of total red blood cells (RBC) ([5]; four month study period): ~1e+06 cells/µL
Hemoglobin-A1 and hemoglobin-A2 levels ([5]; throughout the study): approximately constant
Retics ([5]; Day 8): 2.5 ×10^6 cells
HbF ([5]; Day 22): 0.4
Retics ([5]; Day 22): 2.0 ×10^6 cells
Hgb-A2 ([5]; Day 29): 7.0
Retics ([5]; Day 29): 2.0 ×10^6 cells
HbF ([5]; Day 36): 0.4
Retics ([5]; Day 43): 2.0 ×10^6 cells
RBC ([5]; Day 96, 50 mg/kg): 7.3e+06 cells/µL
decrease of growth of MCF-7 [6]: 50%
system A transport of amino acids (3H-MAIB uptake) [7]: inhibited the neutral amino acid transport mechanism

Compound: steel factor: hematopoietic factor, also referred to as kit ligand, mast cell growth factor and stem cell factor
gamma globin expression after treatment ([8]; 100 ng/ml overnight plus 3H-leucine, increased from 17.6%): 43.3%
gamma globin expression in BFU-e cells after treatment ([8]; 100 ng/ml, 13 days, increased from 14%): 23.3%
Gamma globin expression, mean increase ([8]; 100 ng/ml, 13 days, versus untreated control): 16.1%
rise in numbers of newly-formed blood cells producing fetal globin (anemic juvenile baboons; [11]): 300-500%
rise of fetal globin chain protein (anemic juvenile baboons; [11]): 3 fold
total increase of gamma globin expression in the bone marrow (anemic juvenile baboons; [11]): 9 fold
fetal globin chain protein after treatment (anemic juvenile baboons; 25 and 100 μg/kg subcutaneously, undetectable before treatment): about 3 % of total non-alpha globin
fetal reticulocytes on treatment (anemic juvenile baboons; first dose regimen: 25 μg/kg subcutaneously once daily): 15%
fetal reticulocytes on treatment (anemic juvenile baboons; second dose regimen: 100 μg/kg subcutaneously): 12%
